# Key:
# Adenosine receptor A3 = target: T1, Adenosine receptor A3 (Homo sapiens, UniProt P0DMS8); assay: Binding affinity to human A3 adenosine receptor assessed as inhibition constant
# T1 sequence (P0DMS8 whole entry): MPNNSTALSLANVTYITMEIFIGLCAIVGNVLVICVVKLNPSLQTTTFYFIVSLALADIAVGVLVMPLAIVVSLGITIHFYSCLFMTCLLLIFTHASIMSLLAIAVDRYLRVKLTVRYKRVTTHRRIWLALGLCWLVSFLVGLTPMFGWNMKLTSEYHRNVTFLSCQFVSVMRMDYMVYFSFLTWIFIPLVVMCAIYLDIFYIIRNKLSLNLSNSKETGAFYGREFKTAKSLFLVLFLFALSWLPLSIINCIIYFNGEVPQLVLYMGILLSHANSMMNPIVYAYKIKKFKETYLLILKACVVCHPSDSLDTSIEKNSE
# [1] = Inhibition of human PDE5 derived from platelets by scintillation counter analysis
# [2] = Aqueous solubility of compound; type: physicochemical
# [3] = Inhibition of PDE2 derived from bovine heart by scintillation counter analysis; parameters: species or system Bos taurus
# Homo sapiens [4] = species on record: Homo sapiens; assay: Selectivity index, ratio of Ki for human A2A receptor to Ki for human A3 receptor assessed as fold change
# Homo sapiens [5] = species on record: Homo sapiens; assay: Selectivity index, ratio of Ki for human A1 receptor to Ki for human A3 receptor assessed as fold change
# Homo sapiens [6] = species on record: Homo sapiens; assay: Selectivity index, ratio of Ki for human A2 receptor to Ki for A1 receptor assessed as fold change
# Homo sapiens [7] = species on record: Homo sapiens; assay: Selectivity index, ratio of antagonist activity at A1 receptor to antagonist activity at A2 receptor
# [8] = Inhibition of ryanodine receptor (unknown origin); parameters: species or system Homo sapiens
# [9] = Inhibition of Glycogen phosphorylase (unknown origin); parameters: species or system Homo sapiens
# [10] = Inhibition of human glycogen phosphorylase in presence of 0.2 mM of AMP
# [11] = target: Nuclear receptor subfamily 2 group E member 1 (Homo sapiens, UniProt Q9Y466); assay: Inhibition of tlx (unknown origin)
# Nuclear receptor subfamily 2 group E member 1, sequence (Q9Y466 whole entry): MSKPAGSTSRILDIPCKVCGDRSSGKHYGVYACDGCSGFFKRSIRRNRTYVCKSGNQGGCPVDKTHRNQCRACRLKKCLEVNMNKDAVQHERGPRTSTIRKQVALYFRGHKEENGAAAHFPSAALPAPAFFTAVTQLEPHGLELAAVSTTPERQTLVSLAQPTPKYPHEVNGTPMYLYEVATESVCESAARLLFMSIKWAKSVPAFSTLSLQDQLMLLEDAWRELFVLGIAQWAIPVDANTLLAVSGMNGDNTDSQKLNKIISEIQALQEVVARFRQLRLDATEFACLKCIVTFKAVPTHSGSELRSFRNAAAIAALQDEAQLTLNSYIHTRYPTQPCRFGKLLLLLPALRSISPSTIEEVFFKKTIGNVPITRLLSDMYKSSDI
# [12] = target: GABA-A receptor; anion channel; assay: Inhibition of GABAA receptors (unknown origin); type: protein-complex assay, Homo sapiens
# Guanine deaminase = target: T2, Guanine deaminase (Homo sapiens, UniProt Q9Y2T3); assay: Inhibition of guanine deaminase (unknown origin)
# T2 sequence (Q9Y2T3 whole entry): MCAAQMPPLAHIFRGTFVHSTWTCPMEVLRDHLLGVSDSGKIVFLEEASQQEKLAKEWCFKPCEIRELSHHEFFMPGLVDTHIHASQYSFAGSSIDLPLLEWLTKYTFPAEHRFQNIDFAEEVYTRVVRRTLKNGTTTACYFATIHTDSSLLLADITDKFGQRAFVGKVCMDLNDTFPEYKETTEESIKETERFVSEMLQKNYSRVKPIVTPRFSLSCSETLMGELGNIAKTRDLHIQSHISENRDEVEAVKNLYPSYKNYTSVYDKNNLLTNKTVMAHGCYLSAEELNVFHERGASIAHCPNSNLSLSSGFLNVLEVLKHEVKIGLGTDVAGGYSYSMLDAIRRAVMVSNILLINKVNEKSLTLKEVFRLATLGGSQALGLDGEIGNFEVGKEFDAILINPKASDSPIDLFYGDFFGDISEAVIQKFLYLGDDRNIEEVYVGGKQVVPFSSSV
# [13] = Inhibition of bile export protein (unknown origin); parameters: species or system Homo sapiens
# [14] = Inhibition of PI3-kinase (unknown origin); parameters: species or system Homo sapiens
# [15] = Inhibition of human glycogen phosphorylase
# [16] = Inhibition of phosphodiesterase (unknown origin); parameters: species or system Homo sapiens
# [17] = target: T3, Palmitoleoyl-protein carboxylesterase NOTUM (Homo sapiens, UniProt Q6P988); assay: Inhibition of notum (unknown origin)
# T3 sequence (Q6P988 whole entry): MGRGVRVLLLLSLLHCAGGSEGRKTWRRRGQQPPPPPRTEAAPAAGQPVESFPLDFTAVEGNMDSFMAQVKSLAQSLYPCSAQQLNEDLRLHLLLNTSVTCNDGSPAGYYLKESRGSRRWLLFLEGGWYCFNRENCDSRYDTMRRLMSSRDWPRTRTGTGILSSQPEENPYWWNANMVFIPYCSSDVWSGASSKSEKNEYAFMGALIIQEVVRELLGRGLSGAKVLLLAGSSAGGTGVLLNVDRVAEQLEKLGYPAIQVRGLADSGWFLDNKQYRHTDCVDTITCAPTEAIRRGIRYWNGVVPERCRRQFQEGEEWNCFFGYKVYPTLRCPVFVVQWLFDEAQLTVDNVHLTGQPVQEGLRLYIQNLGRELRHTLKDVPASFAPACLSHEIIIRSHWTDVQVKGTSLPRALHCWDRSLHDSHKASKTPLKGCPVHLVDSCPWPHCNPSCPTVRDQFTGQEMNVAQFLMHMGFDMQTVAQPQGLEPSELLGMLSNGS
smiles,measurement,setting,value
CC[C@@H]1CN2C(=O)N(C)c3nc(-c4cc(Cl)cc(Cl)c4Cl)[nH]c3C2=N1,Ki,Adenosine receptor A3,0.000433 µM
CCCc1nn(C)c2c(=O)[nH]c(-c3cc(S(=O)(=O)N4CCN(C)CC4)ccc3OCC)nc12,IC50,[1],0.01 µM
CCCn1c(=O)c2c(nc(/C=C/c3ccc(OC)c(OC)c3)n2C)n(CCC)c1=O,solubility,[2],< 10 µg/mL
COc1ccc(Cc2nc(O)c3c(C)nc([C@@H](CCCc4ccccc4)[C@@H](C)O)n3n2)cc1OC,IC50,[3],0.0047 µM
Cn1c(=O)c2[nH]c(-c3ccc(S(=O)(=O)O)cc3)nc2n(C)c1=O,solubility,[2],> 20 µM
CCCCn1c(=O)c2c(ncn2[C@@H]2O[C@H](C(=O)NC)[C@@H](O)[C@H]2O)n(CCCC)c1=O,Ratio Ki,Homo sapiens [4],> 400
same,Ratio Ki,Homo sapiens [5],160
CCCn1c(=O)c2nc(-c3ccc(OCC(N)=O)cc3O)[nH]c2n(CCC)c1=O,Ratio Ki,Homo sapiens [6],190
CCCn1c(=O)c2nc(C3CC4CC3C3OC43)[nH]c2n(CCC)c1=O (stereo unspecified),Ratio Ki,Homo sapiens [6],400
CCCn1cnc2c1c(=O)n(C)c(=O)n2C,Ratio,Homo sapiens [7],10
Cn1c(=O)c2c(ncn2C)n(C)c1=O [CAFFEINE],pEC50,[8],< 4
same,pKi,[9],4
same,IC50,[10],360 µM
same,IC50,[11],7.94 µM
same,pKi,[12],< 4
same,Ki,Guanine deaminase,10 µM
same,pIC50,[13],4
same,pIC50,[14],<= 4.1
same,IC50,[15],92 µM
same,pIC50,[16],< 4
same,IC50,[17],100 µM

# — ChEMBL document CHEMBL5223081 (J Med Chem, 2021)
